Measured values taken from US6525001B1, “Substituted pyrimidine and pyridine herbicides” (Mid-American Commercialization Corporation, priority 1997, dated 2003).

Legend:
Assay type in all cases: in vivo
[1] = system: wheat (Triticum aestivum); experiment: Test B pre-/postemergence; parameters: key: 0 is no effect; 10 is complete control
Summary of the method: (§1)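 Compounds in a surfactant-containing, non-phytotoxic solvent blend are applied to freshly planted seed (preemergence) and, concurrently, to seedlings of 2 to 18 cm at 1–4 leaves (postemergence). Plants stay in the greenhouse twelve to sixteen days and are then scored visually from 0 (no effect) to 10 (complete control).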

soybean (Glycine max) = experiment: Test B pre-/postemergence; parameters: key: 0 is no effect; 10 is complete control
Summary of the method: as §1

wild oat (Avena fatua) = experiment: Test B pre-/postemergence; parameters: key: 0 is no effect; 10 is complete control
Summary of the method: as §1

[2] = system: purple nutsedge (Cyperus rotundus); experiment: Test B pre-/postemergence; parameters: key: 0 is no effect; 10 is complete control
Summary of the method: as §1

corn (Zea mays) = experiment: Test B pre-/postemergence; parameters: key: 0 is no effect; 10 is complete control
Summary of the method: as §1

[3] = system: crabgrass (Digitaria sanguinalis); experiment: Test B pre-/postemergence; parameters: key: 0 is no effect; 10 is complete control
Summary of the method: as §1

[4] = system: giant foxtail (Setaria faberii); experiment: Test B pre-/postemergence; parameters: key: 0 is no effect; 10 is complete control
Summary of the method: as §1

[5] = system: bedstraw (Galium aparine); experiment: Test B pre-/postemergence; parameters: key: 0 is no effect; 10 is complete control
Summary of the method: as §1

[6] = system: sugar beet (Beta vulgaris); experiment: Test B pre-/postemergence; parameters: key: 0 is no effect; 10 is complete control
Summary of the method: as §1

rape (Brassica napus) = experiment: Test B pre-/postemergence; parameters: key: 0 is no effect; 10 is complete control
Summary of the method: as §1

[7] = system: velvetleaf (Abutilon theophrasti); experiment: Test B pre-/postemergence; parameters: key: 0 is no effect; 10 is complete control
Summary of the method: as §1

rice (Oryza sativa) = experiment: Test B flood test; details: for Plant response rating, Rice: Postemergence (flood test species)
Summary of the method: (§2)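 Read-out is a visual response score from 0 (no effect) to 10 (complete control), assigned by comparison with untreated controls. Treatment was applied at the 2-leaf stage, and plants stayed in the greenhouse for twelve to sixteen days before scoring.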

[8] = system: duck salad (Heteranthera limosa); experiment: Test B flood test; details: for Plant response rating, Ducksalad: Postemergence (flood test species)
Summary of the method: as §2

[9] = system: smallflower flatsedge (Cyperus difformis); experiment: Test B flood test; details: for Plant response rating, S. Flatsedge: Postemergence (flood test species)
Summary of the method: as §2

[10] = system: bamyardgrass (Echinochloa crus-galli); experiment: Test B flood test; details: for Plant response rating, Barnyardgrass: Postemergence (flood test species)
Summary of the method: as §2

[11] = Preemergence, Rate 62 g/ha, scale of 0 to 10
[12] = Rate 62 g/ha, Postemergence (flood test)
[13] = Rate 125 g/ha, Postemergence section (flood test species)

Structure (SMILES): Cc1cnc(-n2cnc(C(F)(F)F)n2)nc1C(=O)c1cccc(C(F)(F)F)c1 [Compound 67]
- Plant response rating, Wheat [1, 11]: 3
- Wheat plant response rating ([1]; Rate 62 g/ha, Postemergence): 3
- Wheat plant response rating ([1]; Rate 125 g/ha, Postemergence): 4
- Plant response rating, Wheat ([1]; Rate 125 g/ha, Preemergence): 3
- Plant response rating, Wheat ([1]; Rate 250 g/ha, Postemergence): 5
- Plant response rating, Wheat ([1]; Rate 250 g/ha, Preemergence): 3
- Plant response rating, Wheat ([1]; Rate 500 g/ha, Postemergence): 6
- Plant response rating, Wheat ([1]; Rate 500 g/ha, Preemergence): 4
- Plant response rating, Soybean (soybean (Glycine max); [11]): 1
- Soybean plant response rating (soybean (Glycine max); Rate 62 g/ha, Postemergence): 7
- Soybean plant response rating (soybean (Glycine max); Rate 125 g/ha, Postemergence): 7
- Plant response rating, Soybean (soybean (Glycine max); Rate 125 g/ha, Preemergence): 2
- Plant response rating, Soybean (soybean (Glycine max); Rate 250 g/ha, Postemergence): 8
- Plant response rating, Soybean (soybean (Glycine max); Rate 250 g/ha, Preemergence): 3
- Plant response rating, Soybean (soybean (Glycine max); Rate 500 g/ha, Postemergence): 8
- Plant response rating, Soybean (soybean (Glycine max); Rate 500 g/ha, Preemergence): 8
- Plant response rating, Wild oats (wild oat (Avena fatua); [11]): 3
- Wild oats plant response rating (wild oat (Avena fatua); Rate 62 g/ha, Postemergence): 5
- Wild oats plant response rating (wild oat (Avena fatua); Rate 125 g/ha, Postemergence): 7
- Plant response rating, Wild oats (wild oat (Avena fatua); Rate 125 g/ha, Preemergence): 5
- Plant response rating, Wild oats (wild oat (Avena fatua); Rate 250 g/ha, Postemergence): 8
- Plant response rating, Wild oats (wild oat (Avena fatua); Rate 250 g/ha, Preemergence): 6
- Plant response rating, Wild oats (wild oat (Avena fatua); Rate 500 g/ha, Postemergence): 8
- Plant response rating, Wild oats (wild oat (Avena fatua); Rate 500 g/ha, Preemergence): 9
- Nutsedge plant response rating ([2]; Rate 62 g/ha, Postemergence): 0
- Nutsedge plant response rating ([2]; Rate 125 g/ha, Postemergence): 2
- Plant response rating, Nutsedge ([2]; Rate 250 g/ha, Postemergence): 4
- Plant response rating, Nutsedge ([2]; Rate 500 g/ha, Preemergence): 0
- Plant response rating, Corn (corn (Zea mays); [11]): 4
- Corn plant response rating (corn (Zea mays); Rate 62 g/ha, Postemergence): 4
- Corn plant response rating (corn (Zea mays); Rate 125 g/ha, Postemergence): 5
- Plant response rating, Corn (corn (Zea mays); Rate 125 g/ha, Preemergence): 4
- Plant response rating, Corn (corn (Zea mays); Rate 250 g/ha, Postemergence): 6
- Plant response rating, Corn (corn (Zea mays); Rate 250 g/ha, Preemergence): 4
- Plant response rating, Corn (corn (Zea mays); Rate 500 g/ha, Postemergence): 7
- Plant response rating, Corn (corn (Zea mays); Rate 500 g/ha, Preemergence): 7
- Plant response rating, Crabgrass [3, 11]: 6
- Crabgrass plant response rating ([3]; Rate 62 g/ha, Postemergence): 7
- Crabgrass plant response rating ([3]; Rate 125 g/ha, Postemergence): 9
- Plant response rating, Crabgrass ([3]; Rate 125 g/ha, Preemergence): 9
- Plant response rating, Crabgrass ([3]; Rate 250 g/ha, Postemergence): 10
- Plant response rating, Crabgrass ([3]; Rate 250 g/ha, Preemergence): 10
- Plant response rating, Crabgrass ([3]; Rate 500 g/ha, Postemergence): 10
- Plant response rating, Crabgrass ([3]; Rate 500 g/ha, Preemergence): 10
- Plant response rating, Giant foxtail [4, 11]: 7
- Giant foxtail plant response rating ([4]; Rate 62 g/ha, Postemergence): 5
- Giant foxtail plant response rating ([4]; Rate 125 g/ha, Postemergence): 6
- Plant response rating, Giant foxtail ([4]; Rate 125 g/ha, Preemergence): 9
- Plant response rating, Giant foxtail ([4]; Rate 250 g/ha, Postemergence): 9
- Plant response rating, Giant foxtail ([4]; Rate 250 g/ha, Preemergence): 10
- Plant response rating, Giant foxtail ([4]; Rate 500 g/ha, Postemergence): 9
- Plant response rating, Giant foxtail ([4]; Rate 500 g/ha, Preemergence): 10
- Plant response rating, Bedstraw [5, 11]: 7
- Bedstraw plant response rating ([5]; Rate 62 g/ha, Postemergence): 9
- Bedstraw plant response rating ([5]; Rate 125 g/ha, Postemergence): 9
- Plant response rating, Bedstraw ([5]; Rate 125 g/ha, Preemergence): 9
- Plant response rating, Bedstraw ([5]; Rate 250 g/ha, Postemergence): 10
- Plant response rating, Bedstraw ([5]; Rate 250 g/ha, Preemergence): 9
- Plant response rating, Bedstraw ([5]; Rate 500 g/ha, Postemergence): 10
- Plant response rating, Bedstraw ([5]; Rate 500 g/ha, Preemergence): 10
- Plant response rating, Sugarbeets [6, 11]: 9
- Sugarbeets plant response rating ([6]; Rate 62 g/ha, Postemergence): 9
- Sugarbeets plant response rating ([6]; Rate 125 g/ha, Postemergence): 9
- Plant response rating, Sugarbeets ([6]; Rate 125 g/ha, Preemergence): 10
- Plant response rating, Sugarbeets ([6]; Rate 250 g/ha, Postemergence): 9
- Plant response rating, Sugarbeets ([6]; Rate 250 g/ha, Preemergence): 10
- Plant response rating, Sugarbeets ([6]; Rate 500 g/ha, Postemergence): 9
- Plant response rating, Sugarbeets ([6]; Rate 500 g/ha, Preemergence): 10
- Plant response rating, Rape (rape (Brassica napus); [11]): 7
- Rape plant response rating (rape (Brassica napus); Rate 62 g/ha, Postemergence): 6
- Rape plant response rating (rape (Brassica napus); Rate 125 g/ha, Postemergence): 8
- Plant response rating, Rape (rape (Brassica napus); Rate 125 g/ha, Preemergence): 9
- Plant response rating, Rape (rape (Brassica napus); Rate 250 g/ha, Postemergence): 8
- Plant response rating, Rape (rape (Brassica napus); Rate 250 g/ha, Preemergence): 10
- Plant response rating, Rape (rape (Brassica napus); Rate 500 g/ha, Postemergence): 9
- Plant response rating, Rape (rape (Brassica napus); Rate 500 g/ha, Preemergence): 10
- Plant response rating, Velvetleaf [7, 11]: 8
- Velvetleaf plant response rating ([7]; Rate 62 g/ha, Postemergence): 8
- Velvetleaf plant response rating ([7]; Rate 125 g/ha, Postemergence): 8
- Plant response rating, Velvetleaf ([7]; Rate 125 g/ha, Preemergence): 9
- Plant response rating, Velvetleaf ([7]; Rate 250 g/ha, Postemergence): 8
- Plant response rating, Velvetleaf ([7]; Rate 250 g/ha, Preemergence): 10
- Plant response rating, Velvetleaf ([7]; Rate 500 g/ha, Postemergence): 8
- Plant response rating, Velvetleaf ([7]; Rate 500 g/ha, Preemergence): 10
- Rice plant response rating (rice (Oryza sativa); [12]): 1
- Rice plant response rating (rice (Oryza sativa); [13]): 2
- Plant response rating, Rice (rice (Oryza sativa); Rate 250 g/ha): 2
- Plant response rating, Rice (rice (Oryza sativa); Rate 500 g/ha): 4
- Ducksalad plant response rating [8, 12]: 3
- Ducksalad plant response rating [8, 13]: 4
- Plant response rating, Ducksalad ([8]; Rate 250 g/ha): 6
- Plant response rating, Ducksalad ([8]; Rate 500 g/ha): 8
- S. Flatsedge plant response rating [9, 12]: 5
- S. Flatsedge plant response rating [9, 13]: 8
- Plant response rating, S. Flatsedge ([9]; Rate 250 g/ha): 9
- Plant response rating, S. Flatsedge ([9]; Rate 500 g/ha): 9
- Barnyardgrass plant response rating [10, 12]: 3
- Barnyardgrass plant response rating [10, 13]: 3
- Plant response rating, Barnyardgrass ([10]; Rate 250 g/ha): 5
- Plant response rating, Barnyardgrass ([10]; Rate 500 g/ha): 6
